Experimental data reported in patent publication US20150079029A1, “METHODS AND COMPOSITIONS FOR INHIBITING ANGIOGENESIS” (Oncology Research International Limited, priority 2006, published 2015).

What was measured:
aortic explants = experiment: Vessel growth (sprouts and branches) from mouse aortic explants in collagen gel; assay type: cell-based, C57BL6/J mice; settings: for Branches Mean / Sprouts Mean: 1 μL/mL DMSO, 6 days culture, 8 replicates
Description: Three male C57BL6/J mice (9 weeks old) were sacrificed by CO2 asphyxiation and the blood harvested by heart puncture using a 29 gauge needle. The aorta was then dissected (from the aortic arch to the pleural/peritoneal interface) and placed in ice-cold DMEM supplemented with 10 mM Hepes and penicillin/streptomycin.
The fibrous and adipose tissues surrounding the aorta were removed by microscopic dissection and the aorta flushed of blood using ice cold DMEM. The aorta was then longitudinally bisected and cut into approximately 1 mm squares. Individual pieces of aorta were embedded in a drop (20 μL) of collagen solution in the bottom of a well of a 24 well tissue culture plate. The plates were then placed at 37° C./5% CO2 for 10 minutes to polymerise the collagen into a gel. Media (0.3 mL) alone, containing DMSO or deltonin in DMSO was then added to each well to form a moat around the collagen gel.
Only the central 8 wells of each 24 well plate were used for explant cultures to avoid differential gaseous exchange and evaporation rates between explant sample wells. The outer wells were filled with PBS.
Nine groups of 8 replicates each were tested:
The explants were then cultured at 37° C./5% CO2 in a humid incubator for 6 days. Explants were fixed at room temperature for 20 minutes by adding an equal volume (0.3 mL) of 4% paraformaldehyde in PBS to each well. After washing three times with HEPES-buffered saline (HBS, 150 mM NaCl, 10 mM HEPES) the explants were stained with 10 μg/ml FITC-BS-1 lectin conjugate (BS-1 lectin specifically binds mouse endothelial cells) in HBS overnight at 4° C. The following day the explants were washed three times with HBS. Vessel outgrowths from explants were visualised by fluorescence microscopy and photographs taken for data analysis. Multiple multidepth focus fluorescent images were photographed for each explant and the photographs processed using deconvolution software so that total vessel outgrowth for each explant could be determined Total cellular growth associated with each explant was also visualised by light microscopy using a dissecting microscope and documented by photography. For ease of visualisation and analysis a composite inverted black and white image was prepared from the multiple fluorescent images of the vessel outgrowths for each explant. The number of vessel sprouts and the number of vessel branches for each explant was then counted with the person counting being blinded to the identity of each sample. The results are summarised in Table 4, and shown graphically in FIG. 1.

[1] = tested on: angiogenesis induced by bFGF in angiosponges; experiment: AngioSponge assay: bFGF-induced neovascularisation of implanted gelfoam, CD31 staining; assay type: in vivo, C3H/Hej mice; settings: i.p. once daily for 10 days, dioscin 10, deltonin 10, trillin 60, prosapogenin A 20, sorafenib 60 mg/kg; for Average number of blood vessels (CD31 counts): sponges excised Day 11
Text: The AngioSponge™ assay enables slow release of agarose-captured growth factor, which stimulates endothelial cell proliferation and migration, and provides a tissue-like matrix for neovascularisation. The assay can be therefore be used to gauge the efficacy of treatments designed to inhibit angiogenesis, determined by counting blood vessels after CD31 immunohistochemical staining of endothelial cells (McCarty et al, International Journal of Oncology, 21:5-10, 2002).
Gelfoams (Pharmacia & Upjohn) were cut into approximately 7×7×7 mm pieces, under sterile conditions, and pre-soaked over night with sterile phosphate buffered saline. The hydrated gelfoams were then partially dried. Growth factor (bFGF) was diluted to an initial concentration of 2 μg/mL in warm (37° C.) 0.4% agarose. The partially dried gelfoams were placed in the growth factor solution, or in warm 0.4% agarose without growth factor, and then transferred to a Petri dish containing warm 0.4% agarose (1:1 dilution, final growth factor concentration 1 μg/mL) for polymerisation and solidification.
70 female C3H/Hej mice were microchipped, weighed and randomised based on body weight into 7 groups with 10 mice per group. For implantation, the mice were anaesthetised by halothane inhalation. A small channel forged with a trocar needle between the 3rd and 4th mammary gland, the sponge was inserted to the full depth of the channel and the incision closed with a wound clip.
The compounds were formulated in N-methylpyrrolidone (NMP):PEG300:Water (1:9:10, v/v). Dosing was established on the basis of in vitro IC50 data and preliminary toxicity studies. Compounds were administered daily by intraperitoneal injection, at a dosing volume of 10 mL/kg, once daily for the study period as shown in Table 5.
Treatment was started when all the animals had recovered fully from anaesthesia, and continued for 10 days. On Day 11, the angiosponges were excised and snap frozen in liquid nitrogen with OCT for CD31 staining on frozen sections.
CD31/PECAM-1 is an antigen present specifically on endothelial cells and can therefore be used as a marker for blood vessels. Frozen samples of the sponge were cryo-sectioned (12 μm), mounted on positively-charged Plus slides (Fisher Scientific), and air-dried for 30 minutes. Frozen sections were in turn fixed in cold acetone, acetone/chloroform (1:1, v/v), and acetone for 5 min each, and then washed with PBS (phosphate buffer saline). After blocking with PBS containing 5% normal horse serum and 1% normal goat serum, sections were incubated with PECAM-1 monoclonal rat anti-mouse CD31 antibody (1:5000 in blocking solution, PharMingen, San Diego, Calif.) for 4 hours at room temperature. The slides were then washed three times with PBS and incubated with adequate secondary anti-rat antibody. Positive reactions were visualized by incubating the slides in stable 3,3′-diaminobenzidine for 5-10 min. The sections were rinsed with distilled water, counter-stained with Gill's haematoxylin for 1 min, and mounted with Universal Mount (Research Genetics). […] Mouse placenta was used as a positive control. For quantification, 3 independent visual fields were chosen and positive stained spots or vessels with lumen were counted.
The Percent Induction for a treatment is the difference in CD31 counts between the treatment (+bFGF) and the vehicle alone (no bFGF), divided by the difference in CD31 counts between the vehicle with bFGF and the vehicle alone (no bFGF), expressed as a percentage.

[2] = tested on: angiogenesis induced by bFGF in angiochambers; experiment: AngioChamber assay: bFGF-induced fibrous capsule formation and haemoglobin (Drabkin) blood content; assay type: in vivo, FvB mice; settings: i.p. once daily for 5 days, dioscin 10, deltonin 10, trillin 60, prosapogenin A 20, sorafenib 60 mg/kg; for Average blood content (from haemoglobin content): Drabkin assay; for Average chamber weight: wet weight on Day 6
Text: The AngioChamber™ assay utilises the normal physiological process of wound healing, which promotes the formation of a fibrous capsule around an implanted chamber (Wood et al, (2000) Cancer Research, 60(8):2178-89). The inclusion of bFGF in the chamber induces blood vessel development in the fibrous capsule. The assay therefore assesses the efficacy of treatments by gauging their effect both on the fibrous capsule formation, measured by the wet weight of the capsule at the termination of the study and by determination of blood vessel supply to the chamber by assaying for haemoglobin content. The haemoglobin content of the fibrous capsule is a measure of neovascularisation, which is assayed by the Drabkin Assay.
The angiochambers were porous tissue chambers made of perfluoro-alkoxy-Teflon and filled with 0.8% agar containing 20 IU/mL heparin, with or without 1 μg/mL human bFGF. Both ends of the chamber were sealed with removable caps of the same material. The chambers were filled under sterile conditions with 0.8% agar containing 20 IU/mL heparin, with or without 1 μg/mL human bFGF. The agarose solution was maintained at 37° C. prior to filling the chambers.
70 female FvB mice were microchipped, weighed and randomised based on body weight into 7 groups with 10 mice per group. For implantation, the mice were anaesthetised by halothane inhalation. Approximately 150 μL sterile filtered air was injected subcutaneously in the back of each mouse, between the shoulder blades, resulting in an air pocket in which a small incision was made and the chamber inserted. The wound was closed with two 1.4 mm wound clips.
The treatments, which were all formulated in NMP:PEG300:Water (1:9:10, v/v) and administered daily by intraperitoneal injection, were as given in the Table 7:
Treatment was started when all the animals had recovered fully from anaesthesia, and continued for 5 days. On Day 6, the vascularised fibrous chambers were removed and the wet weight recorded for each implant. The chamber from each mouse was then snap frozen with liquid nitrogen and stored at −20° C. until assessed for haemoglobin content.
The fibrous capsule samples were thawed and kept on ice during the procedure. Sterile water was added to each thawed sample, and the sample homogenised with an UltraTourax at high speed. To avoid cross-contamination, the UltraTourax was flushed for 30 seconds with 5 mL distilled water after homogenising each sample. The homogenate was transferred into 2 mL Eppendorf tubes and stored on ice. The Eppendorf tubes were centrifuged at 4° C. and high speed (14,000 relative centrifugal force (RCF)) for 60 min. 1.0-1.5 mL of the intermediate aqueous solution (homogenate), between the pellet and the fat layer, was then transferred to fresh labelled 1.5 mL Eppendorf tubes and stored on ice. 50 μL of each homogenate was transferred into separate wells of a 96-well plate. 50 μL of water was transferred into 2 wells as blanks. 50 μL of Drabkin's reagent was then added to each well and mixed. After 15 min incubation at room temperature, the absorbance of each sample at 540 nm was measured and the volume of blood for each sample calculated from a standard curve.
The Percent Induction for a treatment is the difference in blood content between the treatment (+bFGF) and the vehicle alone (no bFGF), divided by the difference in blood content between the vehicle with bFGF and the vehicle alone (no bFGF), expressed as a percentage.

Row | SMILES | Percent Induction (CD31 counts relative to vehicle + bFGF minus vehicle alone) [1] | Average number of blood vessels (CD31 counts) [1] | Percent Induction (blood content relative to vehicle + bFGF minus vehicle alone) [2] | Average blood content (from haemoglobin content) [2] | Average chamber weight [2] | further results
1 | C[C@@H]1CC[C@@]2(OC1)O[C@H]1C[C@H]3[C@@H]4CC=C5C[C@@H](O[C@@H]6O[C@H](CO)[C@@H](O[C@@H]7O[C@H](CO)[C@@H](O)[C@H](O)[C@H]7O)[C@H](O)[C@H]6O[C@@H]6O[C@@H](C)[C@H](O)[C@@H](O)[C@H]6O)CC[C@]5(C)[C@H]4CC[C@]3(C)[C@H]1[C@@H]2C [Deltonin, diosgenin Rha2, [Glc4], Glc] | 61% | 44 | 20% | 0.79 µL | 0.126 g | Branches Mean (aortic explants; 0.01 μM deltonin): 16; Sprouts Mean (aortic explants; 0.01 μM deltonin): 11; Branches Mean (aortic explants; 0.03 μM deltonin): 26; Sprouts Mean (aortic explants; 0.03 μM deltonin): 18; Branches Mean (aortic explants; 0.1 μM deltonin): 24; Sprouts Mean (aortic explants; 0.1 μM deltonin): 18; Branches Mean (aortic explants; 0.3 μM deltonin): 20; Sprouts Mean (aortic explants; 0.3 μM deltonin): 16; Branches Mean (aortic explants; 1 μM deltonin): 16; Sprouts Mean (aortic explants; 1 μM deltonin): 13; Branches Mean (aortic explants; 3 μM deltonin): 0; Sprouts Mean (aortic explants; 3 μM deltonin): 0; Branches Mean (aortic explants; 10 μM deltonin): 0; Sprouts Mean (aortic explants; 10 μM deltonin): 0; vessel branches from aortic explants in comparison to DMSO treated control explant cultures (aortic explants; at 10, 3 and 1 μM): significantly inhibited; vessel sprouts from aortic explants in comparison to DMSO treated control explant cultures (aortic explants; at 10 and 3 μM): significantly inhibited
2 | C[C@@H]1CC[C@@]2(OC1)O[C@H]1C[C@H]3[C@@H]4CC=C5C[C@@H](O[C@@H]6O[C@H](CO)[C@@H](O[C@@H]7O[C@@H](C)[C@H](O)[C@@H](O)[C@H]7O)[C@H](O)[C@H]6O[C@@H]6O[C@@H](C)[C@H](O)[C@@H](O)[C@H]6O)CC[C@]5(C)[C@H]4CC[C@]3(C)[C@H]1[C@@H]2C [Dioscin, diosgenin Rha2, [Rha4], Glc] | 49% | 35 | 45% | 1.24 µL | 0.131 g | –
3 | C[C@@H]1CC[C@@]2(OC1)O[C@H]1C[C@H]3[C@@H]4CC=C5C[C@@H](O[C@@H]6O[C@H](CO)[C@@H](O)[C@H](O)[C@H]6O[C@@H]6O[C@@H](C)[C@H](O)[C@@H](O)[C@H]6O)CC[C@]5(C)[C@H]4CC[C@]3(C)[C@H]1[C@@H]2C [Prosapogenin A, diosgenin Rha2, Glc] | 29% | 21 | 84% | 1.92 µL | 0.389 g | –
4 | CNC(=O)c1cc(Oc2ccc(NC(=O)Nc3ccc(Cl)c(C(F)(F)F)c3)cc2)ccn1 [Sorafenib, reference compound] | 3% | 2 | 27% | 0.92 µL | 0.322 g | –
5 | C[C@@H]1CC[C@@]2(OC1)O[C@H]1C[C@H]3[C@@H]4CC=C5C[C@@H](O[C@@H]6O[C@H](CO)[C@@H](O)[C@H](O)[C@H]6O)CC[C@]5(C)[C@H]4CC[C@]3(C)[C@H]1[C@@H]2C [Trillin, diosgenin-Glc] | 57% | 41 | 58% | 1.46 µL | 0.421 g | –
